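96-well plates; 48 h exposure; 5 concentrations. Endpoints by linear interpolation between flanking doses. Not reached: highest tested concentration assigned. GI50 is the concentration that inhibits growth by half. The concentration for full growth arrest is given as TGI.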
Assays:
Test in all cases: NCI anticancer screen, dose series, 48 h
MALME-3M melanoma = tested on: MALME-3M melanoma
HOP-62 NSCLC = tested on: HOP-62 NSCLC
SF-295 CNS = tested on: SF-295 CNS
SNB-19 CNS = tested on: SNB-19 CNS
M14 melanoma = tested on: M14 melanoma
NCI-H23 lung = tested on: NCI-H23 lung
HCC-2998 colon = tested on: HCC-2998 colon
UACC-62 melanoma = tested on: UACC-62 melanoma
MOLT-4 leukemia = tested on: MOLT-4 leukemia
OVCAR-3 ovarian = tested on: OVCAR-3 ovarian
TK-10 renal = tested on: TK-10 renal
SW-620 colon = tested on: SW-620 colon
MDA-MB-231 breast = tested on: MDA-MB-231 breast
A498 renal = tested on: A498 renal
MCF7 breast = tested on: MCF7 breast
SK-MEL-28 melanoma = tested on: SK-MEL-28 melanoma
K-562 leukemia = tested on: K-562 leukemia
HL-60(TB) leukemia = tested on: HL-60(TB) leukemia
RPMI-8226 leukemia = tested on: RPMI-8226 leukemia
SK-MEL-5 melanoma = tested on: SK-MEL-5 melanoma
CCRF-CEM leukemia = tested on: CCRF-CEM leukemia
SK-MEL-2 melanoma = tested on: SK-MEL-2 melanoma
EKVX NSCLC = tested on: EKVX NSCLC
A549 NSCLC = tested on: A549 NSCLC
NCI-H226 lung = tested on: NCI-H226 lung
NCI-H522 lung = tested on: NCI-H522 lung
NCI-H460 lung = tested on: NCI-H460 lung
SNB-75 CNS = tested on: SNB-75 CNS
IGROV1 ovarian = tested on: IGROV1 ovarian
HCT-116 colon = tested on: HCT-116 colon
COLO 205 colon = tested on: COLO 205 colon
SR leukemia = tested on: SR leukemia
BT-549 breast = tested on: BT-549 breast
NCI/ADR-RES ovarian = tested on: NCI/ADR-RES ovarian
SN12C renal = tested on: SN12C renal
OVCAR-8 ovarian = tested on: OVCAR-8 ovarian
UO-31 renal = tested on: UO-31 renal
HS 578T breast = tested on: HS 578T breast
CAKI-1 renal = tested on: CAKI-1 renal
LOX IMVI melanoma = tested on: LOX IMVI melanoma
T-47D breast = tested on: T-47D breast
SF-268 CNS = tested on: SF-268 CNS
PC-3 prostate = tested on: PC-3 prostate
DU-145 prostate = tested on: DU-145 prostate
U251 CNS = tested on: U251 CNS
SF-539 CNS = tested on: SF-539 CNS
HT29 colon = tested on: HT29 colon
SK-OV-3 ovarian = tested on: SK-OV-3 ovarian
OVCAR-4 ovarian = tested on: OVCAR-4 ovarian
HCT-15 colon = tested on: HCT-15 colon
UACC-257 melanoma = tested on: UACC-257 melanoma
786-0 renal = tested on: 786-0 renal
MDA-MB-435 = tested on: MDA-MB-435
RXF 393 renal = tested on: RXF 393 renal
ACHN renal = tested on: ACHN renal
OVCAR-5 ovarian = tested on: OVCAR-5 ovarian
HOP-92 NSCLC = tested on: HOP-92 NSCLC

Structure (SMILES): COc1cc(/C=N\NC(=O)CN2CCN(c3cc4c(cc3F)c(=O)c(C(=O)N/N=C/c3cc(OC)c(OC)c(OC)c3)cn4C3CC3)CC2)cc(OC)c1OC
- GI50 (MALME-3M melanoma): 235 nM
- TGI (MALME-3M melanoma): 712 nM
- GI50 (HOP-62 NSCLC): 374 nM
- TGI (HOP-62 NSCLC): 21000 nM
- GI50 (SF-295 CNS): 685 nM
- TGI (SF-295 CNS): 5580 nM
- GI50 (SNB-19 CNS): 445 nM
- TGI (SNB-19 CNS): > 100000 nM
- GI50 (M14 melanoma): 429 nM
- TGI (M14 melanoma): > 49500 nM
- GI50 (NCI-H23 lung): 237 nM
- TGI (NCI-H23 lung): 605 nM
- GI50 (HCC-2998 colon): 178 nM
- TGI (HCC-2998 colon): 330 nM
- GI50 (UACC-62 melanoma): 231 nM
- TGI (UACC-62 melanoma): 583 nM
- GI50 (MOLT-4 leukemia): 331 nM
- TGI (MOLT-4 leukemia): > 100000 nM
- GI50 (OVCAR-3 ovarian): 214 nM
- TGI (OVCAR-3 ovarian): 458 nM
- GI50 (TK-10 renal): > 100000 nM
- TGI (TK-10 renal): > 100000 nM
- GI50 (SW-620 colon): 328 nM
- TGI (SW-620 colon): > 100000 nM
- GI50 (MDA-MB-231 breast): 250 nM
- TGI (MDA-MB-231 breast): 781 nM
- GI50 (A498 renal): 299 nM
- TGI (A498 renal): 23700 nM
- GI50 (MCF7 breast): 362 nM
- TGI (MCF7 breast): > 100000 nM
- GI50 (SK-MEL-28 melanoma): 359 nM
- TGI (SK-MEL-28 melanoma): > 19800 nM
- GI50 (K-562 leukemia): 363 nM
- TGI (K-562 leukemia): > 100000 nM
- GI50 (HL-60(TB) leukemia): 320 nM
- TGI (HL-60(TB) leukemia): > 31700 nM
- GI50 (RPMI-8226 leukemia): 299 nM
- GI50 (SK-MEL-5 melanoma): 417 nM
- TGI (SK-MEL-5 melanoma): 5100 nM
- GI50 (CCRF-CEM leukemia): 316 nM
- TGI (CCRF-CEM leukemia): > 100000 nM
- GI50 (SK-MEL-2 melanoma): 204 nM
- TGI (SK-MEL-2 melanoma): 513 nM
- TGI (EKVX NSCLC): > 100000 nM
- GI50 (A549 NSCLC): > 24600 nM
- TGI (A549 NSCLC): > 100000 nM
- GI50 (NCI-H226 lung): 340 nM
- TGI (NCI-H226 lung): 1200 nM
- GI50 (NCI-H522 lung): 249 nM
- GI50 (NCI-H460 lung): 251 nM
- TGI (NCI-H460 lung): 636 nM
- GI50 (SNB-75 CNS): 530 nM
- TGI (SNB-75 CNS): 2120 nM
- GI50 (IGROV1 ovarian): 365 nM
- TGI (IGROV1 ovarian): 11800 nM
- GI50 (HCT-116 colon): 219 nM
- TGI (HCT-116 colon): 500 nM
- GI50 (COLO 205 colon): 450 nM
- TGI (COLO 205 colon): > 23200 nM
- GI50 (SR leukemia): 324 nM
- TGI (SR leukemia): > 100000 nM
- GI50 (BT-549 breast): 199 nM
- TGI (BT-549 breast): 461 nM
- GI50 (NCI/ADR-RES ovarian): > 100000 nM
- TGI (NCI/ADR-RES ovarian): > 100000 nM
- GI50 (SN12C renal): 225 nM
- TGI (SN12C renal): 601 nM
- GI50 (OVCAR-8 ovarian): 577 nM
- TGI (OVCAR-8 ovarian): > 88500 nM
- GI50 (UO-31 renal): > 100000 nM
- TGI (UO-31 renal): > 100000 nM
- GI50 (HS 578T breast): 308 nM
- GI50 (CAKI-1 renal): > 50500 nM
- TGI (CAKI-1 renal): > 100000 nM
- GI50 (LOX IMVI melanoma): 176 nM
- TGI (LOX IMVI melanoma): 343 nM
- GI50 (T-47D breast): 255 nM
- TGI (T-47D breast): 767 nM
- GI50 (SF-268 CNS): 292 nM
- GI50 (PC-3 prostate): 244 nM
- TGI (PC-3 prostate): 656 nM
- GI50 (DU-145 prostate): 495 nM
- TGI (DU-145 prostate): > 20000 nM
- GI50 (U251 CNS): 328 nM
- TGI (U251 CNS): > 100000 nM
- GI50 (SF-539 CNS): 212 nM
- TGI (SF-539 CNS): 522 nM
- GI50 (HT29 colon): 278 nM
- GI50 (SK-OV-3 ovarian): 718 nM
- TGI (SK-OV-3 ovarian): > 53100 nM
- GI50 (OVCAR-4 ovarian): 379 nM
- TGI (OVCAR-4 ovarian): > 100000 nM
- GI50 (HCT-15 colon): > 100000 nM
- TGI (HCT-15 colon): > 100000 nM
- GI50 (UACC-257 melanoma): 360 nM
- GI50 (786-0 renal): 18700 nM
- TGI (786-0 renal): > 100000 nM
- GI50 (MDA-MB-435): 237 nM
- TGI (MDA-MB-435): 559 nM
- GI50 (RXF 393 renal): 1630 nM
- TGI (RXF 393 renal): 30400 nM
- GI50 (ACHN renal): > 100000 nM
- TGI (ACHN renal): > 100000 nM
- GI50 (OVCAR-5 ovarian): 489 nM
- TGI (OVCAR-5 ovarian): > 62400 nM
- GI50 (HOP-92 NSCLC): 198 nM
- TGI (HOP-92 NSCLC): 674 nM
